Columns and labels:
[1] = system: ABUTH (Velvetleaf); experiment: Postemergence herbicidal evaluation; type: in vivo, Abutilon theophrasti; conditions: postemergence
Outline: (§1)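 Compound is applied as a foliar spray to seedlings about two weeks old, formulated in equal parts acetone and water with 0.5% TWEEN 20 and delivered at 40 psi to give about 0.0156–0.500 kg per hectare. Injury is rated visually 0–9 after four to five weeks.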

[2] = system: AMBEL (Ragweed, Common); experiment: Postemergence herbicidal evaluation; type: in vivo, Ambrosia artemisifolia; conditions: postemergence
Outline: as §1

[3] = system: CHEAL (Lambsquarters, Common); experiment: Postemergence herbicidal evaluation; type: in vivo, Chenopodium album; conditions: postemergence
Outline: as §1

[4] = system: ECHCG (Barnyardgrass); experiment: Postemergence herbicidal evaluation; type: in vivo, Echinochloa crus-galli; conditions: postemergence
Outline: as §1

[5] = system: GLXMAW (Soybean, Williams); experiment: Postemergence herbicidal evaluation; type: in vivo, Glycine max, (L.) Merr. cv Williams; conditions: postemergence
Outline: as §1

[6] = system: ORYSAT (Rice, Tebonnet); experiment: Postemergence herbicidal evaluation; type: in vivo, Oryza sativa, (L.) Tebonnet; conditions: postemergence
Outline: as §1

[7] = system: ZEAMX (Corn, Field); experiment: Postemergence herbicidal evaluation; type: in vivo, Zea mays; conditions: postemergence
Outline: as §1

[8] = system: AMBEL (Ragweed, Common); experiment: Preemergence herbicidal evaluation; type: in vivo, Ambrosia artemisifolia; conditions: preemergence, rated 4-5 weeks after treatment, 0-9 scale
Outline: (§2)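 Preemergence soil application of compound, sprayed in aqueous acetone at rates equivalent to about 0.0156 to 0.500 kg per hectare onto freshly sown cups. Plant response was judged by eye on a 0-9 scale four to five weeks later.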

[9] = system: CASOB (Sicklepod); experiment: Preemergence herbicidal evaluation; type: in vivo, Cassia obtusifolia; conditions: preemergence, rated 4-5 weeks after treatment, 0-9 scale
Outline: as §2

[10] = system: CHEAL (Lambsquarters, Common); experiment: Preemergence herbicidal evaluation; type: in vivo, Chenopodium album; conditions: preemergence, rated 4-5 weeks after treatment, 0-9 scale
Outline: as §2

[11] = system: GALAP (Galium); experiment: Preemergence herbicidal evaluation; type: in vivo, Galium aparine; conditions: preemergence, rated 4-5 weeks after treatment, 0-9 scale
Outline: as §2

[12] = system: CYPSE (Flatsedge); experiment: Preemergence weed control under flooded paddy conditions; type: in vivo, Cyperus serotinus; conditions: rated 3-4 weeks after treatment
Outline: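 Visual injury scored 0-9 against control three to four weeks post-treatment, greenhouse-grown. Application: acetone/water (50/50) solutions dosed directly into flood water (1.5-3 cm over silt loam, planted top 0.5 cm), roughly 0.0313 to 0.500 kg/ha active ingredient.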

[13] = system: CYPIR (Rice Flatsedge); experiment: Postemergence weed control under flooded paddy conditions; type: in vivo, Cyperus iria; conditions: postemergence weeds, rated 3 to 4 weeks after treatment
Outline: (§3)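 With weeds 3 to 5 cm tall and rice at the 1.5 to 2.5 leaf stage, containers were flooded and water held 1.5 to 3 cm above soil. Compounds in 50/50 v/v aqueous/acetone went into the flood water at about 0.0313 to 0.500 kg/ha a.i. Effects were visually rated 0–9 against controls after three to four weeks in the greenhouse.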

[14] = system: CYPSE (Flatsedge); experiment: as above; type: in vivo, Cyperus serotinus; conditions: postemergence weeds, rated 3 to 4 weeks after treatment
Outline: as §3

C=CCN1C(=O)C(CC(=O)OC(C)C(=O)OCC)SC1=Nc1cc(-n2c(=O)ccn(C)c2=O)c(F)cc1Cl [Compound 94, 3-Allyl-2-{{2-chloro-5-[3,6-dihydro-3-methyl-2,6-dioxo-1(2H)-pyrimidinyl]-4-fluorophenyl}imino}-4-oxo-5-thiazolidineacetic acid, ester with ethyl lactate, (R,S)-]
ABUTH herbicidal rating ([1]; rate 0.0158 kg/ha): 9.0 | ABUTH herbicidal rating ([1]; rate 0.0315 kg/ha): 9.0 | ABUTH herbicidal rating ([1]; rate 0.0630 kg/ha): 9.0 | AMBEL herbicidal rating ([2]; rate 0.0158 kg/ha): 7.0 | AMBEL herbicidal rating ([2]; rate 0.0315 kg/ha): 9.0 | AMBEL herbicidal rating ([2]; rate 0.0630 kg/ha): 9.0 | CHEAL herbicidal rating ([3]; rate 0.0158 kg/ha): 9.0 | CHEAL herbicidal rating ([3]; rate 0.0315 kg/ha): 9.0 | CHEAL herbicidal rating ([3]; rate 0.0630 kg/ha): 9.0 | ECHCG herbicidal rating ([4]; rate 0.0158 kg/ha): 1.0 | ECHCG herbicidal rating ([4]; rate 0.0315 kg/ha): 7.0 | ECHCG herbicidal rating ([4]; rate 0.0630 kg/ha): 9.0 | GLXMAW herbicidal rating ([5]; rate 0.0158 kg/ha): 9.0 | GLXMAW herbicidal rating ([5]; rate 0.0315 kg/ha): 9.0 | GLXMAW herbicidal rating ([5]; rate 0.0630 kg/ha): 9.0 | ORYSAT herbicidal rating ([6]; rate 0.0158 kg/ha): 2.0 | ORYSAT herbicidal rating ([6]; rate 0.0315 kg/ha): 4.5 | ORYSAT herbicidal rating ([6]; rate 0.0630 kg/ha): 5.0 | ZEAMX herbicidal rating ([7]; rate 0.0158 kg/ha): 8.5 | ZEAMX herbicidal rating ([7]; rate 0.0315 kg/ha): 8.5 | ZEAMX herbicidal rating ([7]; rate 0.0630 kg/ha): 9.0 | AMBEL rating ([8]; 0.0156 kg/ha): 0.0 | AMBEL rating ([8]; 0.0313 kg/ha): 0.0 | AMBEL rating ([8]; 0.0625 kg/ha): 4.0 | AMBEL rating ([8]; 0.1250 kg/ha): 9.0 | AMBEL rating ([8]; 0.2500 kg/ha): 9.0 | CASOB rating ([9]; 0.0156 kg/ha): 0.0 | CASOB rating ([9]; 0.0313 kg/ha): 0.0 | CASOB rating ([9]; 0.0625 kg/ha): 0.0 | CASOB rating ([9]; 0.1250 kg/ha): 0.0 | CASOB rating ([9]; 0.2500 kg/ha): 0.0 | CHEAL rating ([10]; 0.0156 kg/ha): 9.0 | CHEAL rating ([10]; 0.0313 kg/ha): 9.0 | CHEAL rating ([10]; 0.0625 kg/ha): 9.0 | CHEAL rating ([10]; 0.1250 kg/ha): 9.0 | CHEAL rating ([10]; 0.2500 kg/ha): 9.0 | GALAP rating ([11]; 0.0156 kg/ha): 0.0 | GALAP rating ([11]; 0.0313 kg/ha): 0.0 | GALAP rating ([11]; 0.0625 kg/ha): 0.0 | GALAP rating ([11]; 0.1250 kg/ha): 3.0 | GALAP rating ([11]; 0.2500 kg/ha): 9.0 | CYPSE herbicidal effect rating ([12]; 0.1250 kg/ha): 6.0 | CYPSE herbicidal effect rating ([12]; 0.2500 kg/ha): 9.0 | Herbicidal rating CYPIR ([13]; Rate 0.0313 kg/ha): 0.0 | Herbicidal rating CYPIR ([13]; Rate 0.0625 kg/ha): 3.0 | Herbicidal rating CYPIR ([13]; Rate 0.1250 kg/ha): 4.0 | Herbicidal rating CYPIR ([13]; Rate 0.2500 kg/ha): 4.0 | Herbicidal rating CYPSE ([14]; Rate 0.1250 kg/ha): 6.0 | Herbicidal rating CYPSE ([14]; Rate 0.2500 kg/ha): 9.0

C=CCN1C(=O)C(CC(N)=O)SC1=Nc1cc(-n2c(=O)cc(C(F)(F)F)n(C)c2=O)c(F)cc1Cl (stereo not shown) [Compound 99, 3-Allyl-2-{{2-chloro-5-[3,6-dihydro-3-methyl-2,6-dioxo-4-(trifluoromethyl)-1(2H)-pyrimidinyl]-4-fluorophenyl}imino}-4-oxo-5-thiazolidineacetamide]
herbicidal rating ABUTH ([1]; rate 0.0156 kg/ha): 9.0 | herbicidal rating ABUTH ([1]; rate 0.0313 kg/ha): 9.0 | ABUTH herbicidal rating ([1]; rate 0.0625 kg/ha): 9.0 | ABUTH herbicidal rating ([1]; rate 0.1250 kg/ha): 9.0 | herbicidal rating AMBEL ([2]; rate 0.0156 kg/ha): 9.0 | herbicidal rating AMBEL ([2]; rate 0.0313 kg/ha): 9.0 | AMBEL herbicidal rating ([2]; rate 0.0625 kg/ha): 9.0 | AMBEL herbicidal rating ([2]; rate 0.1250 kg/ha): 9.0 | herbicidal rating CHEAL ([3]; rate 0.0156 kg/ha): 7.0 | herbicidal rating CHEAL ([3]; rate 0.0313 kg/ha): 7.0 | CHEAL herbicidal rating ([3]; rate 0.0625 kg/ha): 9.0 | CHEAL herbicidal rating ([3]; rate 0.1250 kg/ha): 9.0 | herbicidal rating ECHCG ([4]; rate 0.0156 kg/ha): 4.0 | herbicidal rating ECHCG ([4]; rate 0.0313 kg/ha): 4.0 | ECHCG herbicidal rating ([4]; rate 0.0625 kg/ha): 7.0 | ECHCG herbicidal rating ([4]; rate 0.1250 kg/ha): 6.0 | herbicidal rating GLXMAW ([5]; rate 0.0156 kg/ha): 6.5 | herbicidal rating GLXMAW ([5]; rate 0.0313 kg/ha): 7.5 | GLXMAW herbicidal rating ([5]; rate 0.0625 kg/ha): 8.0 | GLXMAW herbicidal rating ([5]; rate 0.1250 kg/ha): 8.0 | herbicidal rating ORYSAT ([6]; rate 0.0156 kg/ha): 4.0 | herbicidal rating ORYSAT ([6]; rate 0.0313 kg/ha): 4.5 | ORYSAT herbicidal rating ([6]; rate 0.0625 kg/ha): 5.5 | ORYSAT herbicidal rating ([6]; rate 0.1250 kg/ha): 6.5 | herbicidal rating ZEAMX ([7]; rate 0.0156 kg/ha): 5.0 | herbicidal rating ZEAMX ([7]; rate 0.0313 kg/ha): 6.0 | ZEAMX herbicidal rating ([7]; rate 0.0625 kg/ha): 7.5 | ZEAMX herbicidal rating ([7]; rate 0.1250 kg/ha): 8.0 | AMBEL rating ([8]; 0.0156 kg/ha): 0.0 | AMBEL rating ([8]; 0.0313 kg/ha): 0.0 | AMBEL rating ([8]; 0.0625 kg/ha): 4.0 | AMBEL rating ([8]; 0.1250 kg/ha): 9.0 | AMBEL rating ([8]; 0.2500 kg/ha): 9.0 | AMBEL rating ([8]; 0.5000 kg/ha): 9.0 | CASOB rating ([9]; 0.0156 kg/ha): 0.0 | CASOB rating ([9]; 0.0625 kg/ha): 1.0 | CASOB rating ([9]; 0.1250 kg/ha): 2.0 | CASOB rating ([9]; 0.2500 kg/ha): 3.0 | CASOB rating ([9]; 0.5000 kg/ha): 7.0 | CHEAL rating ([10]; 0.0156 kg/ha): 9.0 | CHEAL rating ([10]; 0.0313 kg/ha): 9.0 | CHEAL rating ([10]; 0.0625 kg/ha): 9.0 | CHEAL rating ([10]; 0.1250 kg/ha): 9.0 | CHEAL rating ([10]; 0.2500 kg/ha): 9.0 | CHEAL rating ([10]; 0.5000 kg/ha): 9.0 | GALAP rating ([11]; 0.0156 kg/ha): 0.0 | GALAP rating ([11]; 0.0313 kg/ha): 0.0 | GALAP rating ([11]; 0.0625 kg/ha): 1.0 | GALAP rating ([11]; 0.1250 kg/ha): 7.0 | GALAP rating ([11]; 0.2500 kg/ha): 9.0 | GALAP rating ([11]; 0.5000 kg/ha): 7.0 | CYPSE herbicidal effect rating ([12]; 0.0313 kg/ha): 0.0 | CYPSE herbicidal effect rating ([12]; 0.0625 kg/ha): 0.0 | CYPSE herbicidal effect rating ([12]; 0.1250 kg/ha): 0.0 | CYPSE herbicidal effect rating ([12]; 0.2500 kg/ha): 0.0 | CYPSE herbicidal effect rating ([12]; 0.5000 kg/ha): 0.0 | Herbicidal rating CYPIR ([13]; Rate 0.0313 kg/ha): 0.0 | Herbicidal rating CYPIR ([13]; Rate 0.0625 kg/ha): 0.0 | Herbicidal rating CYPIR ([13]; Rate 0.1250 kg/ha): 0.0 | Herbicidal rating CYPIR ([13]; Rate 0.2500 kg/ha): 0.0 | Herbicidal rating CYPIR ([13]; Rate 0.5000 kg/ha): 0.0 | Herbicidal rating CYPSE ([14]; Rate 0.0313 kg/ha): 0.0 | Herbicidal rating CYPSE ([14]; Rate 0.0625 kg/ha): 0.0 | Herbicidal rating CYPSE ([14]; Rate 0.1250 kg/ha): 0.0 | Herbicidal rating CYPSE ([14]; Rate 0.2500 kg/ha): 0.0 | Herbicidal rating CYPSE ([14]; Rate 0.5000 kg/ha): 0.0
